# From US12522597B2, “Methods and compositions for modulating splicing” (Skyhawk Therapeutics, Inc., priority 2019, dated 2026)
# Where two headings read alike, the source gives them in different places.
# Legend:
# [1] = tested on: MDR1; assay: MDCK-MDR1 permeability assay (BBB penetration potential); type: in vitro ADME; settings: dog; for efflux ratio at 120 min, 5 μM: MDCK-MDR1, pH 7.4, MDCK-MDR1: Efflux; for Papp A→B at 120 min, 5 μM: MDCK-MDR1, pH 7.4, MDCK-MDR1: Papp A-B; for Papp B→A at 120 min, 5 μM: MDCK-MDR1, pH 7.4, MDCK-MDR1: Papp B-A
# Description: (§1) Each determination is performed in duplicate. […] Analytical conditions are outlined below.
# [2] = tested on: MDR1-MDCK cell monolayers; assay: as above; type: in vitro ADME; settings: dog, MDCK-MDR1, 120 min, 5 μM, pH 7.4
# Description: as §1
# [3] = tested on: Huntingtin (HTT) transcripts; assay: Quantitative splicing assay (HTT), qPCR; type: cell-based; settings: Homo sapiens, GM04724 (CAG 70/20) Huntington's disease patient lymphoblasts, 24 h
# Description: GM04724 (CAG 70/20) Huntington's disease patient lymphoblasts (Coriell) are plated in 96-wel v-bottom plates at 50,000 cells/well. Immediately after plating, cells are dosed with compound for 24 h at concentrations ranging from 2.5 uM to 0.15 nM (0.1% DMSO). Treated cells are lysed and cDNA synthesized using the Fast Advanced Cells-to-Ct kit (Thermofisher A35378) according to the manufacturer's instructions. 2 uL of each cDNA are used in qPCR reactions to confirm the compound-induced inclusion of a cryptic exon within intron 49 of the Huntingtin (HTT) transcripts. The qPCR reactions are prepared in 384-well plates in 10 uL volume, using TaqMan™ Fast Advanced Master Mix [ThermoFisher; 4444965] with primers and probes shown in the table below. Reactions are run in a Quant Studio 6 qPCR instrument with default settings.
# [4] = tested on: mHTT protein; assay: mHTT protein assay (2B7-MW1, Mesoscale Discovery); type: cell-based, human; settings: GM04724 (CAG 70/20) Huntington's disease patient lymphoblast cells, 48 hours, 2B7-MW1 MSD; read-out: HTT Potency - Protein EC50 mHTT (average)
# Procedure, shortened: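 mHTT levels were read with the 2B7-MW1 antibody pair (N17 and polyQ epitopes) on MSD after 48 h dosing, 10 μM–0.6 nM. Cells were GM04724 HD lymphoblasts (CAG 70/20). A replica plate was read by CTG for cell viability.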
# [5] = qPCR HTTex49_50, read-out: HTT Potency - Splicing: E49-50 EC50 (average)
# [6] = qPCR cryptic exon 49b inclusion, read-out: HTT Potency - Splicing: E49b EC50 (average)
SMILES,"efflux ratio at 120 min, 5 μM [1]","Papp A→B at 120 min, 5 μM [1]","Papp B→A at 120 min, 5 μM [1]",MDCK-MDR1: % Recov A-B [2],MDCK-MDR1: % Recov B-A [2],"EC50 [3, 5]","EC50 [3, 6]",EC50 [4]
"Cc1ncc(-c2ccc(-c3ccc(O[C@@H]4C[C@H]5CCC[C@H](N5)[C@@H]4F)nn3)c(O)c2)o1 (single isomer, unassigned) [93-ENT1]",4,8.72 ×10⁻⁶ cm/s,38.7 ×10⁻⁶ cm/s,75%,78%,16 to 50 nM,16 to 50 nM,16 to 50 nM
"Cn1ccc(-c2ccc(-c3ccc(O[C@@H]4C[C@H]5CCC[C@H](N5)[C@@H]4F)nn3)c(O)c2)n1 (single isomer, unassigned) [68-ENT1]",6,8.61 ×10⁻⁶ cm/s,51.9 ×10⁻⁶ cm/s,87%,79%,16 to 50 nM,16 to 50 nM,16 to 50 nM
"Cc1ccc(-c2ccc(-c3ccc(O[C@H]4C[C@@H]5CCC[C@@H](N5)[C@H]4F)nn3)c(O)c2)nn1 (single isomer, unassigned) [75-ENT2]",10,3.96 ×10⁻⁶ cm/s,39.7 ×10⁻⁶ cm/s,82%,78%,501 to 10000 nM,501 to 10000 nM,501 to 10000 nM
"Cn1ccc2cc(-c3ccc(O[C@@H]4C[C@@]5(C)CCC[C@](C)(N5)[C@@H]4F)nn3)c(O)cc2c1=O (single isomer, unassigned) [156-ENT1]",11,4.79 ×10⁻⁶ cm/s,52.6 ×10⁻⁶ cm/s,86%,90%,16 to 50 nM,16 to 50 nM,0.01 to 15 nM
"Cn1ccc2cc(O)c(-c3ccc(O[C@@H]4C[C@@]5(C)CC[C@](C)(N5)[C@@H]4F)nn3)cc2c1=O (single isomer, unassigned) [130-ENT2]",5,9.9 ×10⁻⁶ cm/s,49.6 ×10⁻⁶ cm/s,78%,79%,16 to 50 nM,16 to 50 nM,0.01 to 15 nM
"Oc1cc(-c2nncs2)ccc1-c1ccc(O[C@@H]2C[C@H]3CCC[C@H](N3)[C@@H]2F)nn1 (single isomer, unassigned) [116-ENT1]",8,7.76 ×10⁻⁶ cm/s,59.2 ×10⁻⁶ cm/s,88%,91%,,,16 to 50 nM
"Cc1cc(-c2ccc(-c3ccc(O[C@H]4C[C@@H]5CCC[C@@H](N5)[C@H]4F)nn3)c(O)c2)co1 (single isomer, unassigned) [98-ENT2]",3,1.07 ×10⁻⁶ cm/s,3.23 ×10⁻⁶ cm/s,9%,45%,,,101 to 500 nM
"N#Cc1ccc(-c2ccc(O[C@@H]3C[C@H]4CCC[C@H](N4)[C@@H]3F)nn2)c(O)c1 (single isomer, unassigned) [110-ENT1]",13,5.37 ×10⁻⁶ cm/s,68.2 ×10⁻⁶ cm/s,101%,100%,,,501 to 10000 nM
"Cc1ccc(-c2ccc(-c3ccc(O[C@@H]4C[C@H]5CCC[C@H](N5)[C@@H]4F)nn3)c(O)c2)o1 (single isomer, unassigned) [99-ENT1]",1,2.07 ×10⁻⁶ cm/s,2.37 ×10⁻⁶ cm/s,9%,47%,,,101 to 500 nM
"Cn1cc(-c2cc(O)c(-c3ccc(O[C@@H]4CC5CC[C@H](N5)[C@@H]4F)nn3)cn2)cn1 (single isomer, unassigned) [63-ENT1]",37,0.29 ×10⁻⁶ cm/s,10.9 ×10⁻⁶ cm/s,103%,110%,,,501 to 10000 nM
